Measurements: patent US20230381142A1, “ANTILEISHMANIAL COMPOUNDS, COMPOSITIONS AND USE THEREOF” (TRUSTEES OF BOSTON UNIVERSITY, priority 2022, published 2023)
pEC50: −log10 of the molar value. Read-outs that look alike come from different tables or passages of the source.

How the values were obtained:
[1] = GSK inMac assay, host cell toxicity readout (LD MAC); type: cell-based, human; details: human
Protocol: (§1) The intramacrophage Leishmania donovani activity assay (LD AMMAC) at GlaxoSmithKline was performed as described.
(§2) Given the literature precedents described above and the apparent narrow tolerance for R^3 substitutions observed in the primary screen compounds, a thorough and methodical assessment was undertaken of tolerated groups at the three points of diversity (R^1/R^2/R^3) for the core. At this stage of the project, all analogues were assessed using a battery of assays performed in-house at GlaxoSmithKline. For antileishmanial activity, GSK's inMac assay was utilized. This assay provides two readouts of compound potency: average number of intracellular amastigotes per infected cell (AMMAC) EC50, percentage of infected cells per well (INFCELL) EC50, as well as a toxicity output derived from the number of host cells (MAC EC50). In addition, compounds were assessed for toxicity against HepG2 cells (HEPG2 EC50). Here, AMMAC EC50 values were focused on for relative potency assessments. […] It should be noted that for all compounds assessed in this project, the measured toxicity against THP-1 macrophages either equaled or exceeded that of HepG2 hepatocytes, therefore the MAC SI is used here as the more conservative estimate of therapeutic index.

[2] = test system: L. donovani intracellular amastigotes infecting THP-1 macrophages; test: GSK intramacrophage L. donovani assay (LD AMMAC, inMac; Assay Conditions C); type: cell-based; details: Leishmania donovani; for pEC50: THP-1 cells, values marked c, read-out: L. donovani amastigotes EC50 (THP-1 cells); for EC50: values marked c: THP-1 cells, read-out: L. donovani amastigotes EC50 (μM, THP-1 or B10R cells)
Protocol: Assay Conditions C: The intramacrophage Leishmania donovani activity assay was performed as described in Antimicrob Agents Chemother (2013) 57(7):2913-22.
as §1, §2

[3] = footnote c, read-out: THP-1 Host Cell CC50

Row | pEC50 [2] | EC50 [2] | SMILES | CC50 [1, 3] | CC50 ([1]; host THP-1 cells)
1 | 6.30 | – | COc1ccc(N2C(=O)c3[nH]nc(CC(C)C)c3[C@@H]2c2ccc(F)cc2C)cc1 [CMLD010949] | 39.8 µM | –
2 | 5.10 | – | COc1ccc(N2C(=O)c3[nH]nc(CC(C)C)c3C2c2cccc(Br)c2)cc1 (stereo not drawn) [CMLD010891] | 25.1 µM | –
3 | < 4.30 | – | COc1ccc(N2C(=O)c3[nH]nc(CC(C)C)c3C2c2ccc(OC)nc2)cc1 (stereo not drawn) [CMLD011027] | > 50 µM | –
4 | 5.60 | – | CC(C)Cc1n[nH]c2c1C(c1c(Cl)cccc1Cl)N(c1ccc3c(c1)OCO3)C2=O (stereo not drawn) [CMLD011547] | 20 µM | –
5 | 5.49 | – | CC(C)Cc1n[nH]c2c1C(c1ccc(F)cc1)N(c1ccc(OC(F)(F)F)cc1)C2=O (stereo not drawn) [CMLD010885] | 7.9 µM | –
6 | 5.40 | – | CC(C)Cc1n[nH]c2c1C(c1ccccc1Br)N(c1ccc(F)cc1)C2=O (stereo not drawn) [CMLD011111] | 15.8 µM | –
7 | 4.70 | – | CC(C)Cc1n[nH]c2c1C(c1ccc(F)cc1)N(c1ccccn1)C2=O (stereo not drawn) [CMLD011095] | > 50 µM | –
8 | 5.20 | – | COc1ccc(N2C(=O)c3[nH]nc(CC(C)C)c3C2c2ccsc2)cc1 (stereo not drawn) [CMLD011104] | > 50 µM | –
9 | 5.80 | – | CCOc1ccc(N2C(=O)c3[nH]nc(CC(C)C)c3C2c2ccc(F)cc2)cc1 (stereo not drawn) [CMLD010900] | 20 µM | –
10 | 4.60 | – | CC(C)Cc1n[nH]c2c1C(c1ccc(F)cc1)N(c1cccnc1)C2=O (stereo not drawn) [CMLD011098] | > 50 µM | –
11 | 5.00 | – | COc1ccc(N2C(=O)c3[nH]nc(CC(C)C)c3C2c2cncc(OC)c2)cc1 (stereo not drawn) [CMLD010886] | 20 µM | –
12 | – | 6.3 µM | C=CCn1nc2c(c1CC(C)C)C(c1ccc(F)cc1)N(c1ccc(OC)cc1)C2=O (stereo not drawn) [CMLD010984] | – | 31.6 µM
13 | 5.10 | – | COc1ccc(N2C(=O)c3[nH]nc(CC(C)C)c3C2c2ccc(C(F)(F)F)cc2)cc1 (stereo not drawn) [CMLD011121] | 15.9 µM | –
14 | 5.20 | – | COc1ccc(N2C(=O)c3[nH]nc(CC(C)C)c3C2c2ccc(Br)cc2)cc1 (stereo not drawn) [CMLD010889] | 15.9 µM | –
15 | 4.60 | – | CC(C)Cc1n[nH]c2c1C(c1ccc(F)cc1)N(c1cccc(C#N)c1)C2=O (stereo not drawn) [BUCMD00806] | > 50 µM | –
16 | 5.20 | – | COc1ccc(N2C(=O)c3[nH]nc(CC(C)C)c3C2c2cccc(C(F)(F)F)c2)cc1F (stereo not drawn) [CMLD011106] | 25.1 µM | –
17 | 4.40 | – | CC(C)Cc1n[nH]c2c1C(c1ccc(F)cc1)N(Cc1ccc(C(F)(F)F)cn1)C2=O (stereo not drawn) [CMLD010848] | > 50 µM | –
18 | 6.30 | – | COc1ccc(N2C(=O)c3[nH]nc(CC(C)C)c3C2c2ccc(F)cc2OC)cc1F (stereo not drawn) [CMLD011573] | 7.9 µM | –
19 | 4.60 | – | CC(C)Cc1n[nH]c2c1[C@@H](c1ccc(F)cc1)N([C@H]1CC[C@H](N(C)C)CC1)C2=O [CMLD011124] | > 50 µM | –
20 | 5.60 | – | CC(C)Cc1n[nH]c2c1C(c1cccc(Cl)c1)N(c1ccc(C(C)(C)C)cc1)C2=O (stereo not drawn) [CMLD011131] | 15.8 µM | –
21 | – | 5 µM | COc1ccc(N2C(=O)c3[nH]nc(CC(C)C)c3C2C2CCCCC2)cc1F (stereo not drawn) [CMLD011090] | – | ≥ 50.1 µM
22 | 4.60 | – | COc1ccc(OC)c(N2C(=O)c3[nH]nc(CC(C)C)c3C2c2ccc(F)cc2)c1 (stereo not drawn) [CMLD011040] | ≥ 50.1 µM | –
23 | 5.00 | – | CC(C)Cc1n[nH]c2c1C(c1ccc(F)cc1)N(c1ccc(C(C)(C)C)cc1)C2=O (stereo not drawn) [BUCMD00816] | > 50 µM | –
24 | 5.20 | – | COc1ccc(N2C(=O)c3[nH]nc(CC(C)C)c3C2c2ccccc2Br)c(OC)c1 (stereo not drawn) [CMLD011109] | 15.8 µM | –
25 | 4.40 | – | COC(=O)c1ccc(N2C(=O)c3[nH]nc(CC(C)C)c3C2C2CCCCC2)cc1 (stereo not drawn) [CMLD011094] | > 50 µM | –
26 | 5.20 | – | COc1ccc(N2C(=O)c3[nH]nc(CC(C)C)c3C2c2cccc(C(F)(F)F)c2)cc1 (stereo not drawn) [CMLD007432] | 15.9 µM | –
27 | 5.30 | – | COc1cc(N2C(=O)c3[nH]nc(CC(C)C)c3C2c2ccccc2Cl)cc(OC)c1OC (stereo not drawn) [CMLD011116] | 6.3 µM | –
